# Measured values reported in patent publication US12479804B2, “Herbicidal compounds” (SYNGENTA CROP PROTECTION AG, priority 2019, dated 2025).
# Columns and labels:
# Assay in all cases: Glasshouse herbicidal test, pre- and post-emergence, percentage damage to the plant
# Assay type in all cases: in vivo
# [1] = test system: Alopecurus myosuroides (ALOMY); settings: 250 g/h, evaluated after 13 days; for ALOMY POST percentage damage caused to the plant (five-point scale): post-emergence; for ALOMY PRE percentage damage caused to the plant (five-point scale): pre-emergence
# Protocol: (§1) Seeds of a variety of test species are sown in standard soil in pots (Lolium perenne (LOLPE), Setaria faberi (SETFA), Alopecurus myosuroides (ALOMY), Echinochloa crus-galli (ECHCG), Avena fatua (AVEFA)). After cultivation for one day (pre-emergence) or after 8 days cultivation (post-emergence) under controlled conditions in a glasshouse (at 24/16° C., day/night; 14 hours light; 65% humidity), the plants are sprayed with an aqueous spray solution derived from the formulation of the technical active ingredient in acetone/water (50:50) solution containing 0.5% Tween 20 (polyoxyethelyene sorbitan monolaurate, CAS RN 9005-64-5). Compounds are applied at 250 g/h. The test plants are then grown in a glasshouse under controlled conditions in a glasshouse (at 24/16° C., day/night; 14 hours light; 65% humidity) and watered twice daily. After 13 days for pre and post-emergence, the test is evaluated for the percentage damage caused to the plant. The biological activities are shown in the following table on a five-point scale (5=80-100%; 4=60-79%; 3=40-59%; 2=20-39%; 1=0-19%).
# Avena fatua (AVEFA) = settings: 250 g/h, evaluated after 13 days; for AVEFA POST percentage damage caused to the plant (five-point scale): post-emergence; for AVEFA PRE percentage damage caused to the plant (five-point scale): pre-emergence
# Protocol: as §1
# [2] = test system: Echinochloa crus-galli (ECHCG); settings: 250 g/h, evaluated after 13 days; for ECHCG POST percentage damage caused to the plant (five-point scale): post-emergence; for ECHCG PRE percentage damage caused to the plant (five-point scale): pre-emergence
# Protocol: as §1
# Lolium perenne (LOLPE) = settings: 250 g/h, evaluated after 13 days; for LOLPE POST percentage damage caused to the plant (five-point scale): post-emergence; for LOLPE PRE percentage damage caused to the plant (five-point scale): pre-emergence
# Protocol: as §1
# Setaria faberi (SETFA) = settings: 250 g/h, evaluated after 13 days; for SETFA POST percentage damage caused to the plant (five-point scale): post-emergence; for SETFA PRE percentage damage caused to the plant (five-point scale): pre-emergence
# Protocol: as §1
smiles,measurement,setting,value
CC#Cc1cc(C)c(C2C(=O)CC3(C=CN(S(=O)(=O)CC)CC3)CC2=O)c(C)c1 (stereo not shown) [Compound A55],ALOMY POST percentage damage caused to the plant (five-point scale),[1],5 (5=80-100%)
same,ALOMY PRE percentage damage caused to the plant (five-point scale),[1],5 (5=80-100%)
same,AVEFA POST percentage damage caused to the plant (five-point scale),Avena fatua (AVEFA),5 (5=80-100%)
same,AVEFA PRE percentage damage caused to the plant (five-point scale),Avena fatua (AVEFA),5 (5=80-100%)
same,ECHCG POST percentage damage caused to the plant (five-point scale),[2],5 (5=80-100%)
same,ECHCG PRE percentage damage caused to the plant (five-point scale),[2],5 (5=80-100%)
same,LOLPE POST percentage damage caused to the plant (five-point scale),Lolium perenne (LOLPE),5 (5=80-100%)
same,LOLPE PRE percentage damage caused to the plant (five-point scale),Lolium perenne (LOLPE),5 (5=80-100%)
same,SETFA POST percentage damage caused to the plant (five-point scale),Setaria faberi (SETFA),5 (5=80-100%)
same,SETFA PRE percentage damage caused to the plant (five-point scale),Setaria faberi (SETFA),5 (5=80-100%)
CC#Cc1cc(C)c(C2C(=O)CC3(C=CN(C(=O)C(F)F)CC3)CC2=O)c(C)c1 (stereo not shown) [Compound A56],ALOMY POST percentage damage caused to the plant (five-point scale),[1],5 (5=80-100%)
same,ALOMY PRE percentage damage caused to the plant (five-point scale),[1],5 (5=80-100%)
same,AVEFA POST percentage damage caused to the plant (five-point scale),Avena fatua (AVEFA),5 (5=80-100%)
same,AVEFA PRE percentage damage caused to the plant (five-point scale),Avena fatua (AVEFA),5 (5=80-100%)
same,ECHCG POST percentage damage caused to the plant (five-point scale),[2],5 (5=80-100%)
same,ECHCG PRE percentage damage caused to the plant (five-point scale),[2],5 (5=80-100%)
same,LOLPE POST percentage damage caused to the plant (five-point scale),Lolium perenne (LOLPE),5 (5=80-100%)
same,LOLPE PRE percentage damage caused to the plant (five-point scale),Lolium perenne (LOLPE),5 (5=80-100%)
same,SETFA POST percentage damage caused to the plant (five-point scale),Setaria faberi (SETFA),5 (5=80-100%)
same,SETFA PRE percentage damage caused to the plant (five-point scale),Setaria faberi (SETFA),5 (5=80-100%)
CC#Cc1cc(C)c(C2C(=O)CC3(C=CN(C(=O)NC(=O)c4ccccn4)CC3)CC2=O)c(C)c1 (stereo not shown) [Compound A57],ALOMY POST percentage damage caused to the plant (five-point scale),[1],5 (5=80-100%)
same,ALOMY PRE percentage damage caused to the plant (five-point scale),[1],5 (5=80-100%)
same,AVEFA POST percentage damage caused to the plant (five-point scale),Avena fatua (AVEFA),5 (5=80-100%)
same,AVEFA PRE percentage damage caused to the plant (five-point scale),Avena fatua (AVEFA),4 (4=60-79%)
same,ECHCG POST percentage damage caused to the plant (five-point scale),[2],5 (5=80-100%)
same,ECHCG PRE percentage damage caused to the plant (five-point scale),[2],5 (5=80-100%)
same,LOLPE POST percentage damage caused to the plant (five-point scale),Lolium perenne (LOLPE),5 (5=80-100%)
same,LOLPE PRE percentage damage caused to the plant (five-point scale),Lolium perenne (LOLPE),5 (5=80-100%)
same,SETFA POST percentage damage caused to the plant (five-point scale),Setaria faberi (SETFA),5 (5=80-100%)
same,SETFA PRE percentage damage caused to the plant (five-point scale),Setaria faberi (SETFA),5 (5=80-100%)
CC#Cc1cc(C)c(C2C(=O)CC3(CCN(C(C)=O)C(C)C3)CC2=O)c(C)c1 (stereo not shown) [Compound A58],ALOMY POST percentage damage caused to the plant (five-point scale),[1],5 (5=80-100%)
same,ALOMY PRE percentage damage caused to the plant (five-point scale),[1],5 (5=80-100%)
same,AVEFA POST percentage damage caused to the plant (five-point scale),Avena fatua (AVEFA),5 (5=80-100%)
same,AVEFA PRE percentage damage caused to the plant (five-point scale),Avena fatua (AVEFA),5 (5=80-100%)
same,ECHCG POST percentage damage caused to the plant (five-point scale),[2],5 (5=80-100%)
same,ECHCG PRE percentage damage caused to the plant (five-point scale),[2],5 (5=80-100%)
same,LOLPE POST percentage damage caused to the plant (five-point scale),Lolium perenne (LOLPE),5 (5=80-100%)
same,LOLPE PRE percentage damage caused to the plant (five-point scale),Lolium perenne (LOLPE),5 (5=80-100%)
same,SETFA POST percentage damage caused to the plant (five-point scale),Setaria faberi (SETFA),5 (5=80-100%)
same,SETFA PRE percentage damage caused to the plant (five-point scale),Setaria faberi (SETFA),5 (5=80-100%)
CC#Cc1cc(C)c(C2C(=O)CC3(CCN(C(C)=O)CC3C)CC2=O)c(C)c1 (stereo not shown) [Compound A59],ALOMY POST percentage damage caused to the plant (five-point scale),[1],5 (5=80-100%)
same,ALOMY PRE percentage damage caused to the plant (five-point scale),[1],5 (5=80-100%)
same,AVEFA POST percentage damage caused to the plant (five-point scale),Avena fatua (AVEFA),5 (5=80-100%)
same,AVEFA PRE percentage damage caused to the plant (five-point scale),Avena fatua (AVEFA),5 (5=80-100%)
same,ECHCG POST percentage damage caused to the plant (five-point scale),[2],5 (5=80-100%)
same,ECHCG PRE percentage damage caused to the plant (five-point scale),[2],5 (5=80-100%)
same,LOLPE POST percentage damage caused to the plant (five-point scale),Lolium perenne (LOLPE),5 (5=80-100%)
same,LOLPE PRE percentage damage caused to the plant (five-point scale),Lolium perenne (LOLPE),5 (5=80-100%)
same,SETFA POST percentage damage caused to the plant (five-point scale),Setaria faberi (SETFA),5 (5=80-100%)
same,SETFA PRE percentage damage caused to the plant (five-point scale),Setaria faberi (SETFA),5 (5=80-100%)
CC#Cc1cc(C)c(C2=C(OC(C)=O)CC3(CCCN(C(C)=O)CC3)CC2=O)c(C)c1 (stereo not shown) [Compound P1],ALOMY POST percentage damage caused to the plant (five-point scale),[1],5 (5=80-100%)
same,ALOMY PRE percentage damage caused to the plant (five-point scale),[1],5 (5=80-100%)
same,AVEFA POST percentage damage caused to the plant (five-point scale),Avena fatua (AVEFA),5 (5=80-100%)
same,AVEFA PRE percentage damage caused to the plant (five-point scale),Avena fatua (AVEFA),5 (5=80-100%)
same,ECHCG POST percentage damage caused to the plant (five-point scale),[2],5 (5=80-100%)
same,ECHCG PRE percentage damage caused to the plant (five-point scale),[2],5 (5=80-100%)
same,LOLPE POST percentage damage caused to the plant (five-point scale),Lolium perenne (LOLPE),5 (5=80-100%)
same,LOLPE PRE percentage damage caused to the plant (five-point scale),Lolium perenne (LOLPE),5 (5=80-100%)
same,SETFA POST percentage damage caused to the plant (five-point scale),Setaria faberi (SETFA),5 (5=80-100%)
same,SETFA PRE percentage damage caused to the plant (five-point scale),Setaria faberi (SETFA),5 (5=80-100%)
CC#Cc1cc(C)c(C2=C(OC(C)=O)CC3(CCN(C(C)=O)C(=O)C3)CC2=O)c(C)c1 (stereo not shown) [Compound P2],ALOMY POST percentage damage caused to the plant (five-point scale),[1],5 (5=80-100%)
same,ALOMY PRE percentage damage caused to the plant (five-point scale),[1],5 (5=80-100%)
same,AVEFA POST percentage damage caused to the plant (five-point scale),Avena fatua (AVEFA),5 (5=80-100%)
same,AVEFA PRE percentage damage caused to the plant (five-point scale),Avena fatua (AVEFA),5 (5=80-100%)
same,ECHCG PRE percentage damage caused to the plant (five-point scale),[2],5 (5=80-100%)
same,LOLPE POST percentage damage caused to the plant (five-point scale),Lolium perenne (LOLPE),5 (5=80-100%)
same,LOLPE PRE percentage damage caused to the plant (five-point scale),Lolium perenne (LOLPE),5 (5=80-100%)
same,SETFA POST percentage damage caused to the plant (five-point scale),Setaria faberi (SETFA),5 (5=80-100%)
same,SETFA PRE percentage damage caused to the plant (five-point scale),Setaria faberi (SETFA),5 (5=80-100%)
CC#Cc1cc(C)c(C2=C(OC(=O)OC)CC3(CCN(C(C)=O)C3)CC2=O)c(C)c1 (stereo not shown) [Compound P3],ALOMY POST percentage damage caused to the plant (five-point scale),[1],5 (5=80-100%)
same,ALOMY PRE percentage damage caused to the plant (five-point scale),[1],5 (5=80-100%)
same,AVEFA POST percentage damage caused to the plant (five-point scale),Avena fatua (AVEFA),5 (5=80-100%)
same,AVEFA PRE percentage damage caused to the plant (five-point scale),Avena fatua (AVEFA),4 (4=60-79%)
same,ECHCG POST percentage damage caused to the plant (five-point scale),[2],5 (5=80-100%)
same,ECHCG PRE percentage damage caused to the plant (five-point scale),[2],5 (5=80-100%)
same,LOLPE POST percentage damage caused to the plant (five-point scale),Lolium perenne (LOLPE),5 (5=80-100%)
same,LOLPE PRE percentage damage caused to the plant (five-point scale),Lolium perenne (LOLPE),5 (5=80-100%)
same,SETFA POST percentage damage caused to the plant (five-point scale),Setaria faberi (SETFA),5 (5=80-100%)
same,SETFA PRE percentage damage caused to the plant (five-point scale),Setaria faberi (SETFA),5 (5=80-100%)
